pIC50: −log10 of the molar value.
Legend:
[1] = system: viral DNA replication (LV virus); assay type: cell-based
[2] = system: LV virus late reporter expression; assay type: cell-based, vaccinia strain Western Reserve
[3] = system: LV virus / LR virus in A549 cells; assay type: cell-based, vaccinia strain Western Reserve
[4] = system: cowpox Brighton red (CPX); assay type: cell-based
[5] = system: EV, IV and LV reporter viruses; assay type: cell-based
[6] = system: HIV/Lai; experiment: microbe, parasite or virus in culture; assay type: cell-based; settings: Human immunodeficiency virus 1, TZM-bl, read-out: IC50, inhibition of HIV
[7] = system: wild-type vaccinia strain Western Reserve; assay type: cell-based
[8] = system: TrpV reporter virus; assay type: cell-based
[9] = system: cellular and viral protein synthesis
[10] = system: A549 and HeLa cells
[11] = system: late Venus; LV virus (Venus under control of the late F17R promoter); assay type: cell-based, vaccinia strain Western Reserve
[12] = system: vaccinia virus strain IHDJ; assay type: cell-based
[13] = system: monkeypox Zaire 1979 (MPDX); assay type: cell-based
[14] = system: EV, IV and LV reporter mRNA; assay type: cell-based, vaccinia strain Western Reserve
[15] = system: LREV virus (late red early Venus reporter vaccinia virus); assay type: cell-based
[16] = system: vaccinia virus; assay type: cell-based

Structure (SMILES): CC(=O)C1=C2C=CCCN2C(=O)N[C@H]1c1ccccc1 [CMLDBU6128, 4-acetyl-2,3,7,8-tetrahydro-3-phenylpyrido[1,2-f]pyrimidin-1-one]
- Venus DNA copies/c.e. [1]: 529 copies/c.e.
- viral DNA replication [1]: occurred normally
- reporter expression after drug removal [2]: drug removal did not result in a restart of reporter expression
- time to flattening of late reporter expression after addition to an unimpeded 10 h infection [2]: ≤ 2 h
- viral spread after low MOI infection [3]: limits viral spread after low MOI infection
- viral yield reduction [4]: 4.0 log
- EV (early) reporter expression [5]: unaffected
- IV (intermediate) reporter expression [5]: only reached half-maximal levels
- reduction of maximum LV (late) reporter fluorescence [5]: approximately 85%
- pIC50 [6]: ~4.70
- virus yield reduction, single-cycle [7]: 3.6 log
- early Venus expression (TrpV) [8]: no detectable effect
- mCherry and late TagBFP expression (TrpV) [8]: reduced mCherry and late TagBFP expression uniformly
- cellular protein synthesis in mock-infected cells [9]: unaffected
- viral protein synthesis [9]: globally reduced
- cytotoxicity of screening hit [10]: not cytotoxic
- cell cytotoxicity ([10]; 24 h): little to no cell cytotoxicity
- pIC50 ([11]; read-out: IC50 for LV reporter expression): ~5.28
- IC90 ([11]; read-out: IC90 for LV reporter expression): ~10.4 µM
- viral yield reduction [12]: 2.4 log
- viral yield reduction [13]: 2.5 log
- EV reporter mRNA accumulation [14]: unaffected
- reduction of peak IV reporter mRNA [14]: 41%
- reduction of peak LV reporter mRNA [14]: 73%
- antiviral activity of screening hit [15]: strongly antiviral

Structure (SMILES): COC(=O)C1=C2C=C([Si](C)(C)C)CCN2C(=O)NC1c1ccccc1 (centres unmarked) [Compound 4c, methyl 1-oxo-3-phenyl-6-(trimethylsilyl)-2,3,7,8-tetrahydro-1Hpyrido[1,2-c]pyrimidine-4-carboxylate]
- melting point: 169 to 172 °C

Structure (SMILES): O=C(NN1C(=O)[C@@H]2[C@@H]3C=C[C@@H]([C@H]4C[C@@H]34)[C@@H]2C1=O)c1ccc(C(F)(F)F)cc1 [ST-246]
- virus yield reduction, single-cycle [7]: 0.3 log

Structure (SMILES): CC(=O)C1=C2C=C(C)CCN2C(=O)NC1c1ccccc1 (centres unmarked) [Compound 3b, 4-acetyl-6-methyl-3-phenyl-2,3,7,8-tetrahydro-1H-pyrido[1,2-c]pyrimidin-1-one]
- antiviral activity compared with CMLDBU6128 [16]: demonstrated antiviral activity but were significantly less active than CMLDBU6 128

Structure (SMILES): Nc1ccn([C@@H]2O[C@H](CO)[C@@H](O)[C@@H]2O)c(=O)n1 [AraC]
- virus yield reduction, single-cycle [7]: 3.5 log
